The source of these data is patent publication US20100190715A1, “Stable Formulations of Peptides” (Novo Nordisk A/S, priority 2003, published 2010).

Data set [1] is described as follows: Proton NMR spectroscopy of solvent and buffer effects on structure and dynamics in solution. The format is physicochemical. As for the experimental part:
FIG. 10. Proton NMR spectrum of acylated GLP-1 with different additives at pH 7.9. N-terminal histidine signals of the imidazol sidechain are observed at approx 7.80 ppm and 7.00 ppm. The linewidth and position reflects the reduced flexibility of the N-terminal. NMR samples were prepared with 6 mg/ml acylated GLP-1 at pH 7.9 dissolved in 90%/10% H2O/D2O. NMR spectra were recorded at 600 MHz using a Varian Inova 600 MHz NMR instrument using 5 mm samples tubes. Sample volumes were 800 ul and spectra were measured at 27 degrees Celsius
FIG. 11. Amide protons of glu-9 (8.65 ppm) and gly-10 (8.42 ppm) under the same conditions as in FIG. 10. More intense amide proton signals reflect that these protons are relatively better shielded structurally from exchange with the water.
Proton NMR spectroscopy of proteins in solutions has become a powerful technique to study structure and dynamics of a pure protein in solution (Wüthrich, K, “NMR of Proteins and Nucleic Acids”, (1986), ISBN 0-471-82893-9). Each proton (or proton group) in a protein will give rise to a resonance peak at a frequency which depends on the chemical and physical environment in the vicinity of each proton (or proton group) in the protein. A skilled artisan in the field of protein NMR spectroscopy will be able to assign most of the resonance peaks of a proton NMR spectrum of a protein to specific protons (or proton groups) in the protein given that the actual behavior of the protein in solution give rise to a well resolved proton NMR spectrum (well known to the skilled artisan in the field). The line width of the resonance peaks in the protein NMR spectrum reflects to some extend the size and dynamic properties of the protein in solution.
Aqueous solution of acylated GLP-1 at concentrations between 1 and 30 mg/ml, with or without buffers in the pH range 7.0 to 8.2 give rise to NMR spectra that to a high extend allow the afore mentioned resonance assignment. Thus several resonances of the NMR spectrum of this peptide can be assigned to specific atomic groups in the peptide. Recording NMR spectra of acylated GLP-1 under the conditions mentioned above but with different buffer substances in the solution allows a direct comparison of the structural and dynamical changes that acylated GLP-1 undergo as different buffers are applied.

Data set [2] in a line: ThT fluorescence assay of fibril formation (physical stability). Format: physicochemical. As for the experimental part:
FIG. 1. ThT fluorescence assay of fibril formation in acylated GLP-1 samples. The samples contain 6 mg/ml acylated GLP-1, 5 μM ThT dissolved in water and adjusted to the stated pH. Experimental conditions are described in “Examples”. Briefly, the samples were incubated at 40° C. and shaken with 960 rpm in an Ascent Fluoroskan fluorescence plate reader. All data points are from the same experiment (i.e. all samples are from the same microtiterplate) and are means of eight replica and shown with standard deviations as error bars. Furthermore, these values at 20 and 40 hours are tabulated for each sample.
Low physical stability of a peptide may lead to amyloid fibril formation, which is observed as well-ordered, thread-like macromolecular structures in the sample eventually resulting in gel formation. This has traditionally been measured by visual inspection of the sample. However, that kind of measurement is very subjective and depending on the observer. Therefore, the application of a small molecule indicator probe is much more advantageous. Thioflavin T (ThT) is such a probe and has a distinct fluorescence signature when binding to fibrils [Naiki et al. (1989) Anal. Biochem. 177, 244-249; LeVine (1999) Methods. Enzymol. 309, 274-284].
The time course for fibril formation can be described by a sigmoidal curve with the following expression [Nielsen et al. (2001) Biochemistry 40, 6036-6046]:
Here, F is the ThT fluorescence at the time t (see FIG. 12). The constant t0 is the time needed to reach 50% of maximum fluorescence. The two important parameters describing fibril formation are the lag-time calculated by t0−2τ and the apparent rate constant kapp=1/τ.
Samples were prepared freshly before each assay. Usually, acylated GLP-1 was dissolved to 6 mg/ml in desired buffer or solvent. The pH of the sample was adjusted to the desired value using appropriate amounts of concentrated NaOH and HClO4. Thioflavin T was added to the samples from a 1 mM stock solution in H2O to a final concentration of 5 μM.
Sample aliquots of 100 μl were placed in a 96 well microtiter plate (Packard Opti-Plate™-96, white polystyrene). Usually, eight replica of each sample (corresponding to one test condition) was placed in one column of wells. The plate was sealed with Scotch Pad (Qiagen).
Incubation at given temperature, shaking and measurement of the ThT fluorescence emission were done in a Fluoroskan Ascent FL fluorescence platereader (Thermo Labsystems). Temperature setting is possible up till 45° C., but usually sat at 40° C. The orbital shaking is selectable up till 1200 rpm, but adjusted to 960 rpm with an amplitude of 1 mm in all the presented data. Fluorescence measurement was done using excitation through a 444 nm filter and measurement of emission through a 485 nm filter.
Each run was initiated by incubating the plate at the assay temperature for 10 min. The plate was measured each hour for typically 45 hours. Between each measurement, the plate was shaken and heated as adjusted.
The measurement points were saved in Microsoft Excel format for further processing and curve drawing and fitting was performed using GraphPad Prism. The background emission from ThT in the absence of fibrils was negligible. The data points are typically a mean of eight samples and shown with standard deviation error bars. Only data obtained in the same experiment (i.e. samples on the same plate) are presented in the same graph ensuring a relative measure of fibrillation between experiments.
The data set may be fitted to Eq. (1). However, since full sigmodial curves in this case are not usually achieved during the measurement time, the degree of fibrillation is expressed as ThT fluorescence at 20 and 40 hours, calculated as the mean of the eight samples and shown with the standard deviation.

“Arg^34, Lys^26(N^ε-(γ-Glu(N^α-hexadecanoyl)))-GLP-1(7-37) [acylated GLP-1]”: the “amide proton resonances of glutamic acid residue 9 and glycine residue 10” value in data set [1] (8 mM phosphate at pH 7.9 compared to non-buffered, 6 mg/ml) was “almost disappearance of amides protons resonances”. In addition, the “protection of amide protons of Glu 9 and Gly 10 from water” value in data set [1] (aqueous solution without buffer substance versus 8 mM phosphate buffer) is recorded as “relatively more protected from the water molecules”. In addition, in data set [1] (concentration range 1 to 30 mg/ml), the self-assembly in solution entry is “bundle up in assemblies with several but well defined and limited number of acylated GLP-1 molecules”. Moreover, the “order and rigidity of the N-terminal” value in data set [1] (non buffered solution or buffered with HEPES, bicine or histidine, pH 7.9) was “more ordered and rigid”. Further, in data set [2] (8 mM phosphate, pH8.15), the fibril formation entry was “fibril formation is already observed”. The fibrillation entry in data set [2] (10 mM BICINE buffer) is reported as “without significantly increasing the fibrillation compared to water at pH7.89”; in data set [2] (10 mM HEPES buffer) it was “without significantly increasing the fibrillation compared to water at pH7.89”; in data set [2] (10 mM NaCl added to solution in water pH 7.9), “promotes fibrillation”; in data set [2] (water adjusted to pH7.85, incubated 45 hours) it was “No significant fibrillation”; in data set [2] (water adjusted to pH8.14, incubated 45 hours) it was “No significant fibrillation”. Besides, the physical stability result was “as physically stable as in 8 mM phosphate pH8.15” in data set [2] (10 mM HEPES pH7.73); “slightly more physically unstable” in data set [2] (10 mM HEPES, pH gradually lowered from pH7.9 to pH7.51); “only marginally less stable” in data set [2] (10 mM His, lowering the pH); “much more physically stable than acylated GLP-1 in non buffered aqueous solution pH7.5” in data set [2] (10 mM His, pH 7.5); “same physical stability of acylated GLP-1 as obtained in water at pH7.9” in data set [2] (10 mM His, pH7.9); “more physical stable than a solution in 8 mM phosphate at pH8.14” in data set [2] (10 mM MOPS). Besides, the physical stability entry is “more physical stable than a solution in 8 mM phosphate at pH8.14” in data set [2] (10 mM TES); “significantly more physically stable” in data set [2] (aqueous solution non buffered or buffered with HEPES or BICINE, versus 8 mM phosphate pH7.92); “significant increase in physical stability” in data set [2] (dissolved in water rather than phosphate buffer (8 mM), 6 mg/ml, 40° C., 960 rpm); “comparable with 8 mM phosphate pH7.88” in data set [2] (water at pH7.53). For the same substance, the fibrillation lag-time result in data set [2] (lowering pH in the interval pH 8.2 to pH 7.5, all examples) was “shorter and shorter fibrillation lag-times”. The “tendency to fibril formation” value in data set [2] (phosphate lowered from 8 mM to 1 mM at pH7.9) is listed as “Less tendency to fibril formation”.
